Reference: PubChem BioAssay AID1259407 (Chemical Carcinogenesis Research Information System (CCRIS), 2018)
Activity calls are given as the source filed them. How the calls were made is not given here.

Tested on: CCRIS mutagenicity, Ames/micronucleus/aberration tests
Assay: CCRIS mutagenicity studies
[1] = Test System: AMES SALMONELLA TYPHIMURIUM, Strain/Indicator: TA98, Metabolic Activation: NONE, Method: PREINCUBATION
[2] = Test System: AMES SALMONELLA TYPHIMURIUM, Strain/Indicator: TA98, Metabolic Activation: NONE, Method: STANDARD PLATE
[3] = Test System: AMES SALMONELLA TYPHIMURIUM, Strain/Indicator: TA100, Metabolic Activation: NONE, Method: PREINCUBATION
[4] = Test System: AMES SALMONELLA TYPHIMURIUM, Strain/Indicator: TA100, Metabolic Activation: NONE, Method: STANDARD PLATE
[5] = Test System: AMES SALMONELLA TYPHIMURIUM, Strain/Indicator: TA98, Metabolic Activation: RAT, LIVER, S-9, PCB, Method: PREINCUBATION

Measured: mutagenic call

CC[C@]1(O)CC2CN(CCc3c([nH]c4ccccc34)[C@@](C(=O)OC)(c3cc4c(cc3OC)N(C=O)[C@H]3[C@@](O)(C(=O)OC)[C@H](OC(C)=O)[C@]5(CC)C=CCN6CC[C@]43[C@@H]65)C2)C1 (stereo partly drawn)
inactive: [1] inactive; negative | [2] inactive; negative | Test System: AMES SALMONELLA TYPHIMURIUM, Strain/Indicator: TA98, Metabolic Activation: S-9, Method: PREINCUBATION inactive; negative | Test System: AMES SALMONELLA TYPHIMURIUM, Strain/Indicator: TA98, Metabolic Activation: S-9, Method: STANDARD PLATE inactive; negative | [3] inactive; negative | [4] inactive; negative | Test System: AMES SALMONELLA TYPHIMURIUM, Strain/Indicator: TA100, Metabolic Activation: S-9, Method: PREINCUBATION inactive; negative | Test System: AMES SALMONELLA TYPHIMURIUM, Strain/Indicator: TA100, Metabolic Activation: S-9, Method: STANDARD PLATE inactive; negative | Test System: AMES SALMONELLA TYPHIMURIUM, Strain/Indicator: TA1537, Metabolic Activation: S-9, Method: STANDARD PLATE inactive; negative | Test System: CHINESE HAMSTER V-79, Strain/Indicator: V-79 (HGPRT)/6-THIOGUANINE, Metabolic Activation: NONE inactive; negative | Test System: CHINESE HAMSTER V-79, Strain/Indicator: V-79/6-THIOGUANINE, Metabolic Activation: NONE, Method: SUSPENSION/PLATE inactive; negative | Test System: CHINESE HAMSTER V-79, Strain/Indicator: V-79/6-THIOGUANINE, Metabolic Activation: RAT, LIVER, HEPATOCYTES, Method: SUSPENSION/PLATE inactive; negative | Test System: E. COLI, Strain/Indicator: WP2 (HCR), Metabolic Activation: NONE, Method: STANDARD PLATE inactive; negative | Test System: E. COLI, Strain/Indicator: WP2 (HCR), Metabolic Activation: S-9, Method: STANDARD PLATE inactive; negative
active: End Point: In vitro micronucleus, Test System: Human lymphoblastoid TK6 cells, Metabolic Activation: None active; positive (p<0.001) | End Point: In vivo micronucleus, Test System: Peripheral blood lymphocytes, Species: Human, Strain/Sex: Workers (6 males and 9 females) and matched controls, Route: Occupational active; positive, both mean micronuclei rate and mean micronucleated cells rate signific | Test System: MOUSE LYMPHOMA, Strain/Indicator: L5178Y (TK+/TK-), Metabolic Activation: NONE active; positive

CN(C)CCCNc1c2ccccc2nc2c(Cl)ccc([N+](=O)[O-])c12
active: [2] active; positive | [4] active; positive

COc1cc(NS(C)(=O)=O)ccc1Nc1c2ccc(N=[N+]=[N-])cc2nc2c(C)cccc12
active: Test System: AMES SALMONELLA TYPHIMURIUM, Strain/Indicator: TA1537, Metabolic Activation: NONE, Method: STANDARD PLATE active; positive

COC1OC(=O)C(Cl)=C1C(Cl)Cl (stereo not drawn)
active: [4] active; positive

CNc1ccc2nccnc2c1C
active: [5] active; positive
inactive: [1] inactive; negative | [3] inactive; negative

CCCCOC(=O)c1ccccc1N
inactive: Test System: AMES SALMONELLA TYPHIMURIUM, Strain/Indicator: TA98, Metabolic Activation: HAMSTER, LIVER, S-9, AROCLOR 1254 (10%), Method: PREINCUBATION inactive; negative | [1] inactive; negative | Test System: AMES SALMONELLA TYPHIMURIUM, Strain/Indicator: TA98, Metabolic Activation: RAT, LIVER, S-9, AROCLOR 1254 (10%), Method: PREINCUBATION inactive; negative | Test System: AMES SALMONELLA TYPHIMURIUM, Strain/Indicator: TA100, Metabolic Activation: HAMSTER, LIVER, S-9, AROCLOR 1254 (10%), Method: PREINCUBATION inactive; negative | [3] inactive; negative | Test System: AMES SALMONELLA TYPHIMURIUM, Strain/Indicator: TA100, Metabolic Activation: RAT, LIVER, S-9, AROCLOR 1254 (10%), Method: PREINCUBATION inactive; negative | Test System: AMES SALMONELLA TYPHIMURIUM, Strain/Indicator: TA1535, Metabolic Activation: HAMSTER, LIVER, S-9, AROCLOR 1254 (10%), Method: PREINCUBATION inactive; negative | Test System: AMES SALMONELLA TYPHIMURIUM, Strain/Indicator: TA1535, Metabolic Activation: NONE, Method: PREINCUBATION inactive; negative | Test System: AMES SALMONELLA TYPHIMURIUM, Strain/Indicator: TA1535, Metabolic Activation: RAT, LIVER, S-9, AROCLOR 1254 (10%), Method: PREINCUBATION inactive; negative | Test System: AMES SALMONELLA TYPHIMURIUM, Strain/Indicator: TA1537, Metabolic Activation: HAMSTER, LIVER, S-9, AROCLOR 1254 (10%), Method: PREINCUBATION inactive; negative | Test System: AMES SALMONELLA TYPHIMURIUM, Strain/Indicator: TA1537, Metabolic Activation: NONE, Method: PREINCUBATION inactive; negative | Test System: AMES SALMONELLA TYPHIMURIUM, Strain/Indicator: TA1537, Metabolic Activation: RAT, LIVER, S-9, AROCLOR 1254 (10%), Method: PREINCUBATION inactive; negative

c1ccc2c(c1)-c1cc3ccc4ccccc4c3cc1[C@H]1N[C@@H]21
active: [2] active; positive | [4] active; positive

O=C(O)c1ccc(/C=C/c2ccc([N+](=O)[O-])o2)cc1
active: [1] active; positive | [5] active; positive | [3] active; positive | Test System: AMES SALMONELLA TYPHIMURIUM, Strain/Indicator: TA100, Metabolic Activation: RAT, LIVER, S-9, PCB, Method: PREINCUBATION active; positive

COC(=O)C12OC1(C)C(C)(O)OC2=O (stereo not drawn)
inactive: Test System: AMES SALMONELLA TYPHIMURIUM, Strain/Indicator: TA98, Metabolic Activation: NONE, Method: DISK ASSAY inactive; negative | [2] inactive; negative | Test System: AMES SALMONELLA TYPHIMURIUM, Strain/Indicator: TA98, Metabolic Activation: RAT, LIVER, S-9, AROCLOR 1254, Method: DISK ASSAY inactive; negative | [4] inactive; negative | Test System: AMES SALMONELLA TYPHIMURIUM, Strain/Indicator: TA100, Metabolic Activation: RAT, LIVER, S-9, AROCLOR 1254, Method: STANDARD PLATE inactive; negative
active: Test System: AMES SALMONELLA TYPHIMURIUM, Strain/Indicator: TA98, Metabolic Activation: RAT, LIVER, S-9, AROCLOR 1254, Method: STANDARD PLATE active; positive

Cc1cc2ccccc2c2ccc3c(c12)[C@@H]1O[C@@H]1[C@H](O)[C@H]3O
active: [3] active; positive | [4] active; positive

O=C(O)CC(Cl)C(=O)O (stereo not drawn)
inactive: Test System: AMES SALMONELLA TYPHIMURIUM, Strain/Indicator: TA98, Metabolic Activation: NONE inactive; negative | Test System: AMES SALMONELLA TYPHIMURIUM, Strain/Indicator: TA98, Metabolic Activation: RAT, LIVER, S-9, AROCLOR 1254 inactive; negative | Test System: AMES SALMONELLA TYPHIMURIUM, Strain/Indicator: TA100, Metabolic Activation: NONE inactive; negative | Test System: AMES SALMONELLA TYPHIMURIUM, Strain/Indicator: TA100, Metabolic Activation: RAT, LIVER, S-9, AROCLOR 1254 inactive; negative | Test System: AMES SALMONELLA TYPHIMURIUM, Strain/Indicator: TA102, Metabolic Activation: NONE inactive; negative | Test System: AMES SALMONELLA TYPHIMURIUM, Strain/Indicator: TA102, Metabolic Activation: RAT, LIVER, S-9, AROCLOR 1254 inactive; negative | Test System: AMES SALMONELLA TYPHIMURIUM, Strain/Indicator: TA104, Metabolic Activation: NONE inactive; negative | Test System: AMES SALMONELLA TYPHIMURIUM, Strain/Indicator: TA104, Metabolic Activation: RAT, LIVER, S-9, AROCLOR 1254 inactive; negative
